Each structure is given as a SMILES string.

This test is described as follows: Inhibition of Saccharomyces cerevisiae alpha-glucosidase assessed as reduction in PNP formation using alpha-PNPG as substrate incubated for 30 mins by microplate reader assay.
Take `O=C(CCCCc1ccccc1)c1ccc(O)cc1`: the IC50 (usually the point on the concentration scale where inhibition reaches its midpoint) came out at 126 µM. `CC1=C2C[C@H](C(C)C)C[C@@H]3O[C@@]2(CC1=O)[C@@]3(C)O`: the 50% inhibitory concentration (IC50) amounted to 102 µM. Turning to `C[C@H]1O[C@H](O[C@H]2[C@H](O)[C@@H](O)[C@@H](O[C@H]3[C@H](O)[C@@H](O)C(O)O[C@@H]3CO)O[C@@H]2CO)[C@H](O)[C@@H](O)[C@@H]1N[C@H]1C=C(CO)[C@@H](O)[C@H](O)[C@H]1O` (some centres not stated) [ACARBOSE], the IC50 is 578 µM. With `O=C(CC[C@H](O)C(=O)c1ccc(O)cc1)c1ccccc1`, the 50% inhibitory concentration (IC50) was determined as 139 µM.

For `CC1=C2[C@@H](O)[C@@]3(C)CC(=O)[C@@]4(C)[C@]2(CC1=O)C[C@]43C`, the IC50 amounted to 159 µM. For `O=C(/C=C/CCc1ccccc1)c1ccc(O)cc1`, the IC50 worked out at 43.3 µM.

Regarding `CO[C@@H](CCc1ccccc1)CC(=O)c1ccccc1`, the IC50 is 145 µM.
